From patent US5089623A, “Certain imidate insecticides” (Imperial Chemical Industries Plc, priority 1990, dated 1992)

What was measured:
Format in all cases: in vivo
[1] = system: Cabbage Looper [Trichoplusia ni (Hubner)]; assay: Cabbage looper test (CL); conditions: second-instar larvae, 3-5 days, percent in solution
[2] = system: Tobacco Budworm [Heliothis virescens (Fabricius)] eggs; assay: Tobacco budworm egg test (TBW-E); conditions: percent in solution
Description: Eggs: Paper towel patches of 2-day old eggs of the tobacco budworm were dipped in acetone solutions of the test compound and placed in petri dishes containing a portion of larval rearing medium. […] Test concentrations ranged from 0.1% downward.

[3] = system: Housefly [Musca domestica]; assay: Housefly insecticidal test (HF); conditions: per 25 female houseflies, 48 hours

| SMILES | LC50 CL [1] [%] | LC50 TBW E [2] [%] | LC50 HF [3] [µg] |
| --- | --- | --- | --- |
| CC(C)C(=Nc1ccc(F)c(Cl)c1)OCc1cccc(Oc2cc(F)cc(F)c2)c1 [Compound 215] | 0.00075 | > 0.1 | 75 |
| Cc1ccc(Oc2cccc(COC(=Nc3cccc(C(F)(F)F)c3)C(C)C)n2)cc1 [Compound 495] | 0.012 | 0.1 | > 100 |
| CC(C)CC(=Nc1ccc(C(C)C)cc1)OCc1cccc(Oc2ccc(F)cc2)c1 [Compound 329] | 0.033 | > 0.1 | 7 |
| COCc1c(F)c(F)c(COC(=Nc2ccc3c(c2)OCO3)C(C)C)c(F)c1F [Compound 501] | 0.00045 | > 0.1 | 20 |
| CC(C)(C)C(=Nc1cccc([N+](=O)[O-])c1)OCc1cccc(Oc2ccccc2)c1 [Compound 175] | 0.018 | > 0.1 | > 100 |
| CC(C)C(=Nc1ccc2c(c1)OC(C)(C)O2)OCc1cccc(Oc2ccc(Cl)cc2)c1 [Compound 241] | 0.0004 | > 0.1 | > 100 |
| Cc1ccc(N=C(OCc2cccc(Oc3ccccc3)c2)C(C)(C)C)cc1C [Compound 167] | 0.02 | > 0.1 | > 100 |
| CC(C)C(=Nc1ccc(Cl)c(Cl)c1)OCc1cccc(Oc2cccc(F)c2)c1 [Compound 40] | 0.0025 | 0.08 | 36 |
| Cc1ccc(N=C(OCc2cccc(Oc3ccccc3)c2)C(C)C)c(Cl)c1 [Compound 94] | 0.0045 | 0.075 | 44 |
| CC(C)C(=Nc1ccc(C#N)c(F)c1)OCc1cccc(Oc2ccc(F)cc2)c1 [Compound 222] | 0.0015 | > 0.1 | 32 |
| CCC(=Nc1ccc(Cl)c(Cl)c1)OCc1cccc(Oc2ccccc2)c1 [Compound 36] | 0.024 | > 0.01 | 20 |
| CC(C)C(=Nc1cccc(C(F)(F)F)c1)OCc1cccc(OCc2ccc(F)cc2)c1 [Compound 489] | < 0.1 | > 0.1 | > 100 |
| COc1ccc(Oc2cccc(COC(=Nc3ccc(Cl)c(Cl)c3)C(C)C)c2)cc1 [Compound 223] | 0.008 | > 0.1 | 43 |
| Cc1ccc(N=C(OCc2cccc(Oc3ccccc3)c2)C(C)C)cc1C [Compound 158] | 0.003 | 0.1 | 9 |
| CCC(=Nc1ccc(CC)cc1)OCc1cccc(Oc2ccccc2)c1 [Compound 157] | 0.009 | > 0.1 | 25 |
| CCC(C)C(=Nc1ccc2c(c1)OCO2)OCc1cccc(Oc2ccccc2)c1 (stereo not drawn) [Compound 185] | 0.0006 | 0.075 | 13 |
| CC(C)C(=Nc1cccc(C(F)(F)F)c1)OCc1cccc(Oc2ccncc2)c1 [Compound 469] | 0.02 | > 0.1 | 40 |
| CC(C)C(=Nc1ccc2c(c1)OCO2)OCc1cc(Oc2ccc(F)cc2)ccc1Cl [Compound 274] | 0.1 | > 0.1 | > 100 |
| Cc1c(COC(=Nc2ccc(F)cc2)C(C)C)cccc1-c1ccccc1 [Compound 458] | 0.007 | > 0.05 | 100 |
| CCC(CC)C(=Nc1cccc(C(F)(F)F)c1)OCc1cccc(Oc2ccc(F)cc2)c1 [Compound 291] | 0.004 | > 0.1 | > 100 |
| COc1ccc(Cl)cc1N=C(OCc1cccc(Oc2ccccc2)c1)C(C)C [Compound 264] | 0.03 | > 0.1 | > 100 |
| CC(C)C(=Nc1c(Cl)cc(Cl)cc1Cl)OCc1cccc(Oc2ccccc2)c1 [Compound 19] | < 0.1 | > 0.1 | > 100 |
| CC(C)(C)C(=Nc1cccc(Cl)c1)OCc1cccc(Oc2ccccc2)c1 [Compound 12] | 0.008 | > 0.1 | > 100 |
| CCCC(=Nc1ccc(Cl)c(Cl)c1)OCc1cccc(Oc2ccccc2)c1 [Compound 38] | 0.006 | 0.05 | 33 |
| CC(C)C(=Nc1ccc(C#N)c(F)c1)OCc1cccc(Oc2ccccc2)c1 [Compound 233] | 0.0017 | 0.09 | 10 |
| CCCC(=Nc1ccc(F)c(Cl)c1)OCc1cccc(Oc2ccccc2)c1 [Compound 123] | 0.012 | > 0.1 | > 100 |
| CC(C)C(=Nc1ccc2c(c1)OC(C)(C)O2)OCc1cccc(Oc2ccccc2)c1 [Compound 182] | 0.0006 | 0.04 | 28 |

| SMILES | LC50 CL [1] [%] | LC50 TBW E [2] [%] | LC50 HF [3] [µg] |
| --- | --- | --- | --- |
| CCC(C)C(=Nc1ccc(C(C)C)cc1)OCc1cccc(Oc2ccccc2)c1 (stereo not drawn) [Compound 317] | 0.0045 | 0.03 | > 100 |
| CC(C)C(=Nc1ccc(F)c(F)c1)OCc1cccc(Oc2ccc(C#N)cc2)c1 [Compound 212] | 0.0005 | 0.045 | 20 |
| CC(C)(Cl)C(=Nc1ccc(Cl)c2ccccc12)OCc1cccc(Oc2ccccc2)c1 [Compound 111] | 0.1 | > 0.1 | > 100 |
| CC(=O)c1cccc(N=C(OCc2cccc(Oc3ccccc3)c2)C(C)C)c1 [Compound 170] | 0.1 | > 0.1 | 37 |
| COc1ccc(Oc2cccc(COC(=Nc3ccc(F)c(Cl)c3)C(C)C)c2)cc1 [Compound 221] | 0.0027 | > 0.1 | 62 |
| CC(C)C(=Nc1ccc(Cl)c(C(F)(F)F)c1)OCc1cccc(Oc2cccc(F)c2)c1 [Compound 195] | 0.002 | > 0.1 | > 100 |
| CC(C)(F)C(=Nc1ccc(F)c(Cl)c1)OCc1cccc(Oc2ccc(F)cc2)c1 [Compound 309] | 0.00017 | 0.07 | > 100 |
| CCC(=Nc1ccc(C(C)C)cc1)OCc1cccc(Oc2ccc(F)cc2)c1 [Compound 320] | 0.0075 | > 0.1 | > 100 |
| CC(C)C(=Nc1ccc(C2CCCCC2)cc1)OCc1cccc(Oc2ccc(F)cc2)c1 [Compound 280] | 0.024 | > 0.1 | > 100 |
| Clc1cccc(N=C(OCc2cccc(Oc3ccccc3)c2)C2CC2)c1 [Compound 24] | 0.005 | 0.1 | 25 |
| CC(C)C(=Nc1cc(F)c(F)cc1F)OCc1cccc(Oc2ccccc2)c1 [Compound 58] | 0.002 | 0.06 | 16 |
| CC(C)C(=Nc1ccc(Cl)cc1Cl)OCc1cccc(Oc2ccc(F)cc2)c1 [Compound 312] | 0.006 | > 0.1 | > 100 |
| CC(C)C(=Nc1ccc(Cl)cc1Cl)OCc1cccc(Oc2ccccc2)c1 [Compound 311] | 0.0017 | 0.1 | 22 |
| CC(C)C(=Nc1ccc(Cl)c(Cl)c1)OCc1cccc(Oc2ccc(F)c(F)c2)c1 [Compound 218] | 0.0003 | 0.025 | 25 |
| CC(C)C(=Nc1ccc(F)c(Cl)c1)OCc1cccc(Oc2ccc(I)cc2)c1 [Compound 447] | 0.0009 | > 0.1 | 33 |
| CC(C)C(=Nc1ccc(Cl)c(Cl)c1)OCc1cccc(Oc2cccc(Cl)c2)c1 [Compound 207] | 0.008 | > 0.1 | > 100 |
| CCC(=Nc1ccc(F)c(Cl)c1)OCc1cccc(Oc2ccc(F)cc2)c1 [Compound 115] | 0.0012 | 0.075 | 10 |
| CC(C)C(=Nc1ccc(F)cc1)OCc1cccc(Oc2ccc(F)c(F)c2)c1 [Compound 265] | 0.00025 | 0.07 | 10 |
| CC(C)C(=Nc1cc(C(F)(F)F)ccc1F)OCc1cccc(Oc2ccccc2)c1 [Compound 84] | 0.006 | 0.1 | 93 |
| Cc1ccc(Cl)c(N=C(OCc2cccc(Oc3ccccc3)c2)C(C)C)c1 [Compound 93] | 0.005 | > 0.1 | 64 |
| CC(C)C(=Nc1cccc(C#N)c1)OCc1cccc(Oc2ccccc2)c1 [Compound 126] | 0.08 | > 0.1 | > 100 |
| Fc1c(F)c(F)c(COC(=Nc2cccc(Cl)c2Cl)C(Cl)Cl)c(F)c1F [Compound 454] | 0.03 | > 0.1 | > 100 |
| CC(C)C(=Nc1ccc(F)cc1)OCc1coc(Cc2ccccc2)c1 [Compound 491] | 0.0028 | 0.08 | 9 |
| Cc1cc(Br)ccc1N=C(OCc1cccc(Oc2ccccc2)c1)C(C)C [Compound 133] | 0.005 | 0.1 | 66 |
| COc1ccc(N=C(OCc2cccc(Oc3ccccc3)c2)C(C)C)cc1OC [Compound 169] | 0.009 | > 0.1 | 10 |
| CC(C)C(=Nc1ccc(C(F)(F)F)cc1)OCc1ccc(F)c(Oc2ccc(F)cc2)c1 [Compound 287] | 0.0025 | > 0.1 | > 100 |
